Results from patent US20040198788A1, “Medicinal compositions containing angiotensin II receptor antagonist” (SANKYO COMPANY, LIMITED, priority 2001, published 2004).

Test system: Watanabe heritable hyperlipidemic (WHHL) rabbits
Experiment: Determination of aortic lesioned area
Assay type: in vivo, rabbit
Conditions: olmesartan 0.5 mg/kg, compound A 20 mg/kg
Method: Determination of Aortic Lesioned Area Watanabe heritable hyperlipidemic (WHHL) rabbits aged 16 weeks were divided in 4 groups consisting of 12 or 13 animals each: control group (5% gum arabic solution), olmesartan (0.5 mg/kg) group, compound A (20 mg/kg) group, and combination group of olmesartan (0.5 mg/kg) and compound A (20 mg/kg). These test agents were orally administered for 24 weeks. After the 24th week, the rabbits were sacrificed and their aorta were isolated to determine the aortic lumen area and arteriosclerotic lesion area in the aortic lumen. Then the percentage of arteriosclerotic lesion area in the aortic lumen [arteriosclerotic lesion area in the aortic lumen/the aortic lumen area]×100 (%)] was calculated.

Question: How did the “lesion area in % (percentage of arteriosclerotic lesion area in the aortic lumen)” value (WHHL rabbits aged 16 weeks, oral administration for 24 weeks, control group 59.7) turn out when `CCCCCCCCN1CCc2c(C)c(CC(=O)O)c(C)c(NC(=O)C(C)(C)C)c21.O=S(=O)(O)O` [compound A, N-(1-octyl-5-carboxymethyl-4,6-dimethylindolin-7-yl)-2,2-dimethylpropaneamide sulfate] was run?
Answer: The value was 59.0%.

Question: What about the “arteriosclerotic lesion area compared with control / single-administration groups (in words)” value (WHHL rabbits, oral, 24 weeks) of the same molecule?
Answer: The value was “little affected”.
